From patent US6962930B1, “Compounds, compositions and method suitable for amelioration of withdrawal syndromes and withdrawal-induced brain damage” (Lohocla Research Corporation, priority 1997, dated 2005)

Columns and labels:
[1] = system: ethanol withdrawal-induced seizures in C57BL/6 mice; test: Ethanol withdrawal-induced seizures; assay type: in vivo; conditions: single 100 mg/kg i.p. at 0900 hours
Source text: Male C57BL/6 mice were housed individually. One group of mice were each given a measured amount of liquid diet (BioServ) containing 6.7% ethanol (v/v) and a second, control group of mice each received the same diet with maltodextrin substituted isocalorically for ethanol, as their sole nutrient source for 7 days. A description of such a test can be found in Grant, K. A., et al., “ETHANOL WITHDRAWAL SEIZURES AND THE NMDA RECEPTOR COMPLEX,” Eur. J. Pharmacol., 176 289–296, (1990), the relevant disclosures of which are incorporated herein by reference. Pair-fed mice were given a volume of liquid diet equal to the average volume that the ethanol-fed mice consumed on the previous day. This treatment regimen produces mice that are functionally tolerant to and physically dependent on ethanol. Beginning at 0700 hours on the eighth day of the diet, ethanol-containing diet was replaced with control liquid diet (“withdrawal”).
Withdrawal seizure severity was assessed by measuring the incidence of handling-induced and spontaneous seizures, which were rated on a rating scale of 0 to 4, modified from a rating scale described by Grant, K. A., et al. in the above cited article. The rating scale was as follows: 0, little or no reaction; 1, slight jerkiness upon handling; 2, excitability increasing in magnitude to a clonic-tonic seizure; 3, spontaneous or instantaneous clonic-tonic seizure; 4, death while in a seizure. The mice were rated for seizure severity at 2, 4, 6, 7, 8, 9, 10, 11, 12 and 24 hours after ethanol withdrawal. Groups of ethanol-fed mice were injected intraperitoneally at 0700, 1100 and 1400 hours with saline, 3, 10 or 17 mg/kg (±)HA-966 (FIG. 5A) or 10, 17 or 30 mg/kg 7-Cl kynurenic acid (FIG. 5B).
Male C57BL/6 mice were fed ethanol in a liquid diet and the withdrawal seizure severity was assessed as described in EXAMPLE 5. Groups of ethanol-fed mice received a single injection (i.p.) of either vehicle (4% Tween-80, 0.5% carboxymethylcellulose in 0.9% saline) alone or of 100 mg/kg DCUK-OMe suspended in the vehicle administered at 0900 hours. The results are presented in FIG. 6A as the median withdrawal scores of vehicle-injected (N=14) or DCUK-OMe injected (N=6) mice in which * denotes P<0.05, statistically compared to vehicle-injected mice, in the Mann-Whitney U test. FIG. 6B presents the same data as the total withdrawal score, defined as the area enclosed by the curve connecting median withdrawal scores plotted against time as in FIG. 6A. The mean total withdrawal scores±SEM for the vehicle-injected group and DCUK-OMe-injected groups are plotted in which * denotes P<0.05, statistically compared to vehicle-injected mice, by the Student t-test.

[2] = system: primary cultures of rat cerebellar granule cells; test: Glutamate-induced excitotoxic cell death, fluorescein assay; assay type: cell-based
Protocol: Primary cultures of cerebellar granule cells were prepared from 6- to 8-day old Sprague-Dawley rats. A description of this procedure can be found in Iorio, K. R., et al., “CHRONIC EXPOSURE OF CEREBELLAR GRANULE CELLS TO ETHANOL RESULTS IN INCREASED N-METHYL-D-ASPARTATE RECEPTOR FUNCTION,” Mol. Pharmacol., 41 1142–1148 (1992), the relevant disclosures of which are incorporated herein by reference. The cultures were maintained in plates containing 24 wells of 1 ml each. Culture density was about 1.5×10^6 cells/ml. Cell viability was assayed after 7–8 days in culture by the production of fluorescein, formed from fluorescein diacetate by esterases present in living cells. […]
Cells were washed with Mg^2+-free Locke's buffer, and then exposed to glutamate alone or glutamate in the presence of 10, 30, or 100 μM DCUK-OMe at 25° C. for 30 minutes. […] For each study, the fluorescence value of a control culture (i.e., not exposed to glutamate) was set to 35,000 fluorescence units, and fluorescence values in all other cultures determined using the same spectrofluorometric settings were normalized to that value. […] The data are then expressed as the percent cell death relative to the control cultures.

[3] = target: T1, rabbit cardiac L-type VSCC (Oryctolagus cuniculus, UniProt P15381); test: Currents through VSCCs in oocytes, two electrode voltage clamp; assay type: cell-based; conditions: 50 μM, Li+ currents, holding −80 mV, test −20 mV
T1 construct: expressed in transfected cells; host or cells: Xenopus laevis oocytes, cRNA injection
T1 sequence (P15381 whole entry): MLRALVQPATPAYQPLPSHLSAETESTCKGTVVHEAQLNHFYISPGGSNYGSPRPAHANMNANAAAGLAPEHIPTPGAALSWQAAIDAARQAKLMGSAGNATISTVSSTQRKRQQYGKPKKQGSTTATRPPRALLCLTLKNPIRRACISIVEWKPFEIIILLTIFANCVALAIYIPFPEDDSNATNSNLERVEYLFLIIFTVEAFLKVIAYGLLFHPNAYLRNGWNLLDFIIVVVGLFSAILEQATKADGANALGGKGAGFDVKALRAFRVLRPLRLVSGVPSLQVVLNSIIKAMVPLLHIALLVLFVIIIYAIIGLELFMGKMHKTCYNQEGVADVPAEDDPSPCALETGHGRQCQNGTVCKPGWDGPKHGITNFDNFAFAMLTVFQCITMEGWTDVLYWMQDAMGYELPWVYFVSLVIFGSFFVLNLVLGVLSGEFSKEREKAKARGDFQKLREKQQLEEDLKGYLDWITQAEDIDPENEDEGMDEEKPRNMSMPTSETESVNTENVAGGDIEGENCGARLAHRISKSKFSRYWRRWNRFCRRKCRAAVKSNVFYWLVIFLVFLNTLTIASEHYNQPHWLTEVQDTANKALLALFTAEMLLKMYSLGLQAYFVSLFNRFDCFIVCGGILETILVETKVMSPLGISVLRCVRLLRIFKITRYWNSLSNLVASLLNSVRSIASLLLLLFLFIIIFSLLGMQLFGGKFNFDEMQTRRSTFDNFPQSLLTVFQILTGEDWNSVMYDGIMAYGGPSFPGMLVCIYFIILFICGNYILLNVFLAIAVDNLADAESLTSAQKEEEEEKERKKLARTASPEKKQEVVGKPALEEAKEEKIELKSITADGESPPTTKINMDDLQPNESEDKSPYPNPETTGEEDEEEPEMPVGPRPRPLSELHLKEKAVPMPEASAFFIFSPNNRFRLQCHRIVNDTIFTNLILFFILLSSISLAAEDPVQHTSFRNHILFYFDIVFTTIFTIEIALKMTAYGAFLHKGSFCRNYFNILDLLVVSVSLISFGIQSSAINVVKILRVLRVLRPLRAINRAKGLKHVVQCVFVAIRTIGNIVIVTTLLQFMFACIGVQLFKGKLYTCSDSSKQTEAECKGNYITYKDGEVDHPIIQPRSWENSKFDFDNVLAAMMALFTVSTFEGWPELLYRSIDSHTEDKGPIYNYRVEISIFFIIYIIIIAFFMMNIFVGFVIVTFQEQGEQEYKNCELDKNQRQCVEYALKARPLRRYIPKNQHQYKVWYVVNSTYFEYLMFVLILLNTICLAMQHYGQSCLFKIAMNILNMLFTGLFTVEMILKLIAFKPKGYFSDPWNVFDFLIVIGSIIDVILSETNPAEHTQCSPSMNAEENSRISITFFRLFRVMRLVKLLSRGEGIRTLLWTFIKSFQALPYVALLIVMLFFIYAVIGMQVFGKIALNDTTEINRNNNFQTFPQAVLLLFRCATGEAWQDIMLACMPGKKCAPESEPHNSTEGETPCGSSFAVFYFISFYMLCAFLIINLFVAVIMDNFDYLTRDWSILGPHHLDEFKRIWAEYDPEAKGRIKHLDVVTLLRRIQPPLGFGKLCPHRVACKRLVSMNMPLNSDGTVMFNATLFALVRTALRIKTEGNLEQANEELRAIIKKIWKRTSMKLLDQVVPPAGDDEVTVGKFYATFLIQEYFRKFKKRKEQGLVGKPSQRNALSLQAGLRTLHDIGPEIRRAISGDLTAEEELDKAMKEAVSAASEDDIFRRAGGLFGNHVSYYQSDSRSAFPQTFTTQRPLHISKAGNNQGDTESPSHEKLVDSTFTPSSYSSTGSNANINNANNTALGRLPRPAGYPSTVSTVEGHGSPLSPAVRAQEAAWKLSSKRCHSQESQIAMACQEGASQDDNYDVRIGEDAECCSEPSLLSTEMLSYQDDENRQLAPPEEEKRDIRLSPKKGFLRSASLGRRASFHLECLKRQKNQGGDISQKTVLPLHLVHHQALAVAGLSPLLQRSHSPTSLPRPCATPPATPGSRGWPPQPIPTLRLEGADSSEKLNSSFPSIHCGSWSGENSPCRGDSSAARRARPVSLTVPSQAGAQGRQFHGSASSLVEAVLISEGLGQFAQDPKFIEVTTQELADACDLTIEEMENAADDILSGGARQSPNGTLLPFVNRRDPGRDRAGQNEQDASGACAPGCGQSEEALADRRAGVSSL
Protocol: In other studies, Stage V and VI oocytes were prepared from Xenopus laevis and maintained using the procedures described in Example 3. Oocytes were injected with cRNA encoding the rabbit cardiac L-type VSCC αic, together with the ancillary subunits α2/β and β2b in a 1:1:1 molar ratio. Macroscopic currents were recorded 4–6 days following injection using the two electrode voltage clamp technique. During recording, oocytes were maintained at room temperature in a perfusion chamber and perfused (1 ml/min) continuously with a buffer containing (in mM) 100 LiCl, 10 HEPES, 10 HEDTA, 14 TEA-Cl, 0.015 CaCl2, (effective free calcium concentration ˜3 nM), pH 7.4 with TEA-OH. The monovalent ion Li^+was used as the charge carrier rather than Ba^2+in these studies because high concentrations of divalent ions promoted precipitation of DCUKA.
DCUKA was made up as a stock solution in DMSO and used in the studies at a concentration of 50 μM, resulting in a final DMSO percentage of 0.25%. This concentration of DMSO enhanced Li^+currents to a small extent, however, this was controlled for by exchanging between solutions that were identical except for presence/absence of the drug itself. […] Li^+currents were recorded using an OC-725B amplifier (Warner Instruments), filtered at 1 kHz (4-pole Bessel filter, Warner Instruments) and sampled at 2 kHz. Voltage pulses of 250 ms duration were given every 15 sec. […]

Row | decrement in the current through VSCCs [3] | Compound | ethanol withdrawal severity [1] | protection from glutamate-induced cell death ([2]; 100 μM) | effect on glutamate-induced cell death ([2]; 10, 30 or 100 μM, 30 minutes with glutamate)
1 |  | COC(=O)c1cc(NC(=O)N(c2ccccc2)c2ccccc2)c2c(Cl)cc(Cl)cc2n1 [DCUK-OMe, (N,N-diphenyl)-4-ureido-5,7-dichloro-2-carboxy-quinoline methyl ester] | reduces ethanol withdrawal severity | complete protection | can block glutamate-induced cell death in a concentration-dependent manner
2 | less than 20% | O=C(O)c1cc(NC(=O)N(c2ccccc2)c2ccccc2)c2c(Cl)cc(Cl)cc2n1 [DCUKA, (N,N-diphenyl)-4-ureido-5,7-dichloro-2-carboxy-quinoline] |  |  | 
